Source: publication PMC9180407, “Unraveling the Binding Mechanism of Alzheimer’s Drugs with Irisin: Spectroscopic, Calorimetric, and Computational Approaches” (International Journal of Molecular Sciences, 2022)
Where two headings read alike, the source gives them in different places.

Molecular target: T1, irisin (Homo sapiens, UniProt Q8NAU1)
T1 construct: gene FNDC5; irisin (secreted ectodomain cleaved from FNDC5), His tag with 3C site (pET15b-His-3C-irisin), tag cleavage not mentioned, E. coli C41-DE3, Ni-NTA purified
T1 sequence (Q8NAU1 80-191 limits assumed): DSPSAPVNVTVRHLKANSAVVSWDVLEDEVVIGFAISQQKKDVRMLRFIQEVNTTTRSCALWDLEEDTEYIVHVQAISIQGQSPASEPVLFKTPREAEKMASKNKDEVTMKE
Assay: isothermal titration calorimetry
Format: binding
Source text: isothermal titration calorimetry on irisin

With `CC12CC3CC(C)(C1)CC(N)(C3)C2` [memantine] the Kd (read-out: Ka2 (converted)) was 9.35 µM.
For `CNCCC(Oc1ccc(C(F)(F)F)cc1)c1ccccc1` (stereo not drawn) [fluoxetine], the Kd (read-out: Ka1 (converted)) was 0.156 µM.
With `COc1ccc2c3c1O[C@H]1C[C@@H](O)C=C[C@@]31CCN(C)C2` [galantamine] the Kd (read-out: Ka2 (converted)) was 8.06 µM.
